In ChEMBL document CHEMBL5465560, “Selectivity Literature for EUbOPEN Chemogenomic Library” (2024):
Blank lines part the entries; values can stand above or below the compound they belong to.

Legend:
[1] = molecular target: Cyclin-dependent kinase 2 (Homo sapiens, UniProt P24941); conditions: at 10 µM
[2] = molecular target: STE20-like serine/threonine-protein kinase (Homo sapiens, UniProt Q9H2G2); experiment: Selectivity interaction (ActivX KiNativ screen (kinase selectivity in THP-1 cell lysates)) EUB0000639a SLK; format: subcellular; conditions: lysate
Chain of STE20-like serine/threonine-protein kinase (Q9H2G2 whole entry, looked up): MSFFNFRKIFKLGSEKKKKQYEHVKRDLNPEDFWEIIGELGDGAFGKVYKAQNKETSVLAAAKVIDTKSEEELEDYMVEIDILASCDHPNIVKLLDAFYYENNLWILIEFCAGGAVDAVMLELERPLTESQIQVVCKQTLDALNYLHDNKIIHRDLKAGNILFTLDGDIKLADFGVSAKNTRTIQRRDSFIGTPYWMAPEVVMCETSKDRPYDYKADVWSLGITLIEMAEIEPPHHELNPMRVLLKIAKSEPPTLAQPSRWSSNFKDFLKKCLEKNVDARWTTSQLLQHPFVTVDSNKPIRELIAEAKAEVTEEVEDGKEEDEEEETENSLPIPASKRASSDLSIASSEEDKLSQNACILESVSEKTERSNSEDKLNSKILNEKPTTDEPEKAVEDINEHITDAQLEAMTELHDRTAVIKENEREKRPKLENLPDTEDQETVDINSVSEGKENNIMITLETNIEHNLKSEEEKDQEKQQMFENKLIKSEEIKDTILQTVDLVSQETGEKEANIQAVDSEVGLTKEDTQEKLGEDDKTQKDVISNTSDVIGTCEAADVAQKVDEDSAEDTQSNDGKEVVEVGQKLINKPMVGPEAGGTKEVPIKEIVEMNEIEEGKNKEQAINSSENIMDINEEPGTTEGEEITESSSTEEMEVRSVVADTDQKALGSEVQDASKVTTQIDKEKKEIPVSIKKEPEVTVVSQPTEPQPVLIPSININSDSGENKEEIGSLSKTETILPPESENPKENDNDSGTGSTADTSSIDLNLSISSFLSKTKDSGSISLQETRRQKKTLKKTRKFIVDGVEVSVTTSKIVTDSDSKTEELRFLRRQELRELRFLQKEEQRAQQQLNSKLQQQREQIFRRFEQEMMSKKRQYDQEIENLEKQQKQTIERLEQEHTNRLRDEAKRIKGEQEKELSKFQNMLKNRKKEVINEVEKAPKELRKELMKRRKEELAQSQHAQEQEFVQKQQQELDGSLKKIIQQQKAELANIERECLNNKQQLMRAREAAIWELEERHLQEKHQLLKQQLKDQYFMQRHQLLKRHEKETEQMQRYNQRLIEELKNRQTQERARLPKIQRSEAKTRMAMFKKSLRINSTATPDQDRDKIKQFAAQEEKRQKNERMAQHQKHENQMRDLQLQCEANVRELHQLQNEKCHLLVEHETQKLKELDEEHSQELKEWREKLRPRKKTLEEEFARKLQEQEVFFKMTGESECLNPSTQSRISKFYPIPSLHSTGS

[3] = molecular target: T1, Myosin light chain kinase (Homo sapiens) (UniProt Q32MK0); experiment: Selectivity interaction (ProQinase) EUB0000171b MYLK3
T1 sequence (whole entry): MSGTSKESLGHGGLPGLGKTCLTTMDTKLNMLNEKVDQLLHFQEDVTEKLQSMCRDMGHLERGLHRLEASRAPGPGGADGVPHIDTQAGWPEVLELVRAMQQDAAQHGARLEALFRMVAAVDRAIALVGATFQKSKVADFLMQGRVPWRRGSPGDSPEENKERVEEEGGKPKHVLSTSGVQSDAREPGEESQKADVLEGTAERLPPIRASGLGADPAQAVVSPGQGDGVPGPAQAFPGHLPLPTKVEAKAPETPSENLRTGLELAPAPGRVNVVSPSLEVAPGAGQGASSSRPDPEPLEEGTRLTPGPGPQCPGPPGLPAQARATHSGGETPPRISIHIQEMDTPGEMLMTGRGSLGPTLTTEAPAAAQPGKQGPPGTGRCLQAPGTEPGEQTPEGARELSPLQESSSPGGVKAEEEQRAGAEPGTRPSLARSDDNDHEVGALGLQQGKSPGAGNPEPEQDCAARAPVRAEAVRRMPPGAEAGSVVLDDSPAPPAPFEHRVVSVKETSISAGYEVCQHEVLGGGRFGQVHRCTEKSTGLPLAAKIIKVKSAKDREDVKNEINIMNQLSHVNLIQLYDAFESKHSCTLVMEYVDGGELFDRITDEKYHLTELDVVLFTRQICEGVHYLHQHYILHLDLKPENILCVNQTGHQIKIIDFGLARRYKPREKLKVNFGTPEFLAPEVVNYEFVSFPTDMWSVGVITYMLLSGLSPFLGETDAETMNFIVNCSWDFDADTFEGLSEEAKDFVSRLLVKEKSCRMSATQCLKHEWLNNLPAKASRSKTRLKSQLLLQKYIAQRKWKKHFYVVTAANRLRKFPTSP

[4] = molecular target: T2, Mitogen-activated protein kinase 15 (Homo sapiens) (UniProt Q8TD08); experiment: Selectivity interaction (LanthaScreen Eu Kinase Binding Assay) EUB0001632a MAPK15; conditions: at 10 µM
T2 sequence (whole entry): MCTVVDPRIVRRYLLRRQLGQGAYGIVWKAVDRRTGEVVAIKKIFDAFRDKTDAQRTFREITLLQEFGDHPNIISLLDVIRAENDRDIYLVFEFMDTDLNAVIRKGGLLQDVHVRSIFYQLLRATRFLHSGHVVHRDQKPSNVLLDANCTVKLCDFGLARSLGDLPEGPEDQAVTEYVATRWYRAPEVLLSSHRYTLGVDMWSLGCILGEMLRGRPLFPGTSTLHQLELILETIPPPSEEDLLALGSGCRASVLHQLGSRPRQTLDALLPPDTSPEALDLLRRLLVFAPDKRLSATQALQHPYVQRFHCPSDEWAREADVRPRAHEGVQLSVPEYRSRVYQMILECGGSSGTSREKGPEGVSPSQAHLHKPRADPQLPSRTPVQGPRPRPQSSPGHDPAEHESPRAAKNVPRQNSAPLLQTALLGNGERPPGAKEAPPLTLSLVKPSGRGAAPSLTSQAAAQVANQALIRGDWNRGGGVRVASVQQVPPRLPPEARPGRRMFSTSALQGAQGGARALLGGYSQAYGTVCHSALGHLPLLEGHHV

- % of control [1]: 100%
Compound: CCN(CC)CCCCNc1ncc2cc(-c3cc(OC)cc(OC)c3)c(NC(=O)NC(C)(C)C)nc2n1

- % of inhibition ([2]; at 0.01 µM): 3.3%
- % of inhibition ([2]; at 0.04 µM): -3.6%
- % of inhibition ([2]; at 0.2 µM): -8.9%
- % of inhibition ([2]; at 1 µM): -13.7%
- % of inhibition ([2]; at 5 µM): -7.8%
Compound: CC[C@@H]1[C@H](F)C(=O)N[C@@H]1COc1nccc2cc(C(N)=O)c(OC)cc12 [ZIMLOVISERTIB]

- % of control ([3]; at 1 µM): 89%
- % of control ([3]; at 5 µM): 68%
Compound: C=CC(=O)Nc1cccc(C(=O)Nc2ccc(Nc3cc(-c4[nH]c(SC)nc4C)ccn3)cc2)c1

Compound: Cn1cc(-n2cnc3c(NCc4nc5cc(Cl)c(Cl)cc5[nH]4)nc(N4CCOCC4)nc32)cn1
- % of inhibition [4]: -42.8%
